Reference: ChEMBL document CHEMBL1201862, “PubChem BioAssay data set” (2004)
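Where inhibition never reached the appropriate level, the endpoint shown equals the highest concentration tested. Otherwise, values were interpolated linearly from a five-concentration, 48-hour dose response in 96-well plates. The concentration for 50% growth inhibition is given as GI50.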 The source made the active and inactive calls. Rule as the data show it: active = GI50 up to about 1.1 µM and inactive = higher.

Columns and labels:
Assay in all cases: DTP human tumour cell line panel, 48 h
[1] = test system: NCI-H460
[2] = test system: ACHN
[3] = test system: SK-MEL-5
[4] = test system: OVCAR-3
[5] = test system: OVCAR-4
[6] = test system: EKVX
[7] = test system: OVCAR-8
[8] = test system: UO-31
[9] = test system: MOLT-4
[10] = test system: HL-60
[11] = test system: SN12C
[12] = test system: OVCAR-5
[13] = test system: HCT-116
[14] = test system: UACC-62
[15] = test system: HCC 2998
[16] = test system: SK-MEL-2
[17] = test system: Malme-3M
[18] = test system: LOX IMVI
[19] = test system: HOP-92

Measured: GI50

CN1CCc2cc(O)c3cc2C1Cc1ccc(cc1)Oc1cc(ccc1O)CC1c2c(cc4c(c2O3)OCO4)CCN1C (stereo not given)
inactive: [1] 46.2 µM | [2] 28.7 µM | [3] 18.9 µM | [4] 75 µM | [5] 28.8 µM | [6] 18.1 µM | [7] 19.8 µM | [8] 1.6 µM | [9] 24.3 µM | [10] 16.3 µM | [11] 32.9 µM | [12] 27 µM | [13] 36.6 µM | [14] 24.2 µM | [15] 19.5 µM | [16] 16.1 µM

N#C/C(=C/C=C/c1ccco1)C(N)=O
inactive: [1] > 10 µM | [2] > 10 µM | [3] > 10 µM | [4] > 10 µM | [17] > 10 µM | [6] > 10 µM | [7] > 10 µM | [8] > 10 µM | [11] > 10 µM | [12] > 10 µM | [18] > 10 µM | [15] > 10 µM | [16] > 10 µM

O=[N+]([O-])c1nccn1COCCF
inactive: [1] > 100 µM | [2] > 100 µM | [3] > 100 µM | [4] > 100 µM | [5] > 100 µM | [17] > 100 µM | [6] > 100 µM | [7] > 100 µM | [8] > 100 µM | [9] > 100 µM | [19] > 100 µM | [10] > 100 µM | [11] > 100 µM | [12] > 100 µM | [18] > 100 µM | [13] > 100 µM | [14] > 100 µM | [16] > 100 µM

COC(=O)c1cc(/C=C/C(=O)Cc2ccccc2)cn1S(=O)(=O)c1ccccc1
inactive: [1] > 100 µM | [2] > 100 µM | [3] > 100 µM | [4] > 100 µM | [5] > 100 µM | [17] > 100 µM | [6] > 100 µM | [7] > 100 µM | [8] > 100 µM | [9] > 100 µM | [10] > 100 µM | [11] > 100 µM | [12] > 100 µM | [18] > 100 µM | [13] > 100 µM | [14] > 100 µM | [15] > 100 µM | [16] > 100 µM

Cn1c(=N)n[n+]([O-])c2ccccc21
inactive: [2] 5.48 µM | [3] 1.59 µM | [4] 1.55 µM | [5] 1.94 µM | [17] 2.34 µM | [6] 9.93 µM | [7] 13.2 µM | [8] 5.16 µM | [9] 1.87 µM | [19] 23.7 µM | [10] 2.17 µM | [11] 2.13 µM | [12] 2.51 µM | [18] 2.59 µM | [13] 4.14 µM | [14] 1.75 µM | [15] 20.6 µM | [16] 3.47 µM

COc1ccc(-c2ccccc2)c(N/N=C2\CCCNC2=O)c1
inactive: [1] > 100 µM | [2] > 100 µM | [3] 28.2 µM | [4] > 100 µM | [17] > 100 µM | [6] > 100 µM | [7] > 100 µM | [8] > 100 µM | [9] > 100 µM | [19] > 100 µM | [11] > 100 µM | [12] > 100 µM | [18] > 100 µM | [13] 13.1 µM | [14] 49 µM | [15] > 100 µM | [16] > 100 µM

COc1ccc2c(c1)CN1C(=N2)CSC1c1cccc(Br)c1 (stereo not given)
inactive: [1] 30.1 µM | [2] 19.8 µM | [3] 5.71 µM | [5] 36.9 µM | [17] 60.1 µM | [6] 22.1 µM | [7] 69.8 µM | [8] 17.5 µM | [9] 6.82 µM | [19] 8.61 µM | [10] 3.58 µM | [11] 20.4 µM | [12] > 100 µM | [18] 23.9 µM | [13] 19 µM | [14] 17.8 µM | [15] 14.8 µM | [16] 24.2 µM

Nc1cc(CO)cc(Nc2nc3ccc(Cl)cc3c3[nH]c4ccccc4c23)c1
inactive: [1] 2.2 µM | [2] 3.17 µM | [17] 5.27 µM | [6] 1.52 µM | [7] 4.28 µM | [8] 2.9 µM | [9] 4.2 µM | [19] 2.43 µM | [10] 21.7 µM | [11] 2.89 µM | [12] 3.85 µM | [13] 3.34 µM | [14] 1.85 µM | [16] 4.27 µM

Cc1ccc(NCC2(/N=C/c3ccccc3)OC(CO)C(O)C2O)cc1 (stereo not given)
inactive: [1] 32.7 µM | [2] 74.3 µM | [3] 23.3 µM | [4] 41.7 µM | [5] 60.1 µM | [17] 37.2 µM | [7] > 100 µM | [8] 61.7 µM | [9] 40.1 µM | [19] 64 µM | [10] 20.5 µM | [12] > 100 µM | [13] 36.6 µM | [14] 54.1 µM | [15] 91.2 µM | [16] 31 µM

O=C(CC1(O)C(=O)Nc2ccc(Br)cc21)c1cccc([N+](=O)[O-])c1 (stereo not given)
inactive: [1] > 100 µM | [2] 60.5 µM | [3] > 10 µM | [4] 38.7 µM | [5] 23.1 µM | [17] > 100 µM | [6] 40.7 µM | [7] 35.5 µM | [8] 64.9 µM | [9] 24.9 µM | [19] 20.8 µM | [10] 27.7 µM | [11] > 100 µM | [12] > 100 µM | [18] 32.4 µM | [15] 65 µM | [16] 54.7 µM

O=c1cc(-c2ccc(Cl)cc2)oc2cc(OCCCOc3ccc4c(=O)cc(-c5ccc(Cl)cc5)oc4c3)ccc12
inactive: [1] > 100 µM | [2] > 100 µM | [3] > 100 µM | [4] > 100 µM | [5] > 100 µM | [17] > 100 µM | [6] > 100 µM | [7] > 100 µM | [9] > 100 µM | [19] > 100 µM | [10] > 100 µM | [11] > 100 µM | [12] > 100 µM | [18] > 100 µM | [13] > 100 µM | [14] > 100 µM | [15] > 100 µM | [16] > 100 µM

O=C(c1cc2ccccc2[nH]1)C(O)(c1cc2ccccc2[nH]1)c1cc2ccccc2[nH]1
inactive: [1] > 246 µM | [2] > 246 µM | [3] > 246 µM | [4] 20 µM | [17] > 246 µM | [6] > 246 µM | [7] > 246 µM | [9] > 246 µM | [19] > 246 µM | [10] > 246 µM | [11] > 246 µM | [12] > 246 µM | [18] > 246 µM | [13] 16.6 µM | [14] > 246 µM | [15] > 246 µM | [16] > 246 µM
